Tests used:
human OTR = human OTR (Homo sapiens, UniProt P30559); test: Inhibition activity on human OTR (Fluo-4 calcium assay, HEK293/human OTR stably transfected cells); format: cell-based; conditions: oxytocin 3 nM
Protocol: The inhibition effect of the compounds of the present invention on the activity of human OTR protein expressed in HEK293/human OTR stably transfected cells was determined by the following experimental method:
The pcDNA3.1-hOTR plasmid was transferred into HEK293 cells with the Lipofectamine® 3000 transfection reagent; G418 was added on the next day to screen, and monoclonal cell lines were selected.
(§1) HEK293/human OTR stably transfected cells were inoculated in a 96-well plate with an inoculation density of 25,000 cells/well one day in advance. On the next day, a loading buffer containing Fluo-4 dye was formulated using the reagents in the Fluo-4 NW calcium assay kit, and the culture medium was then removed; 100 μl of the loading buffer containing Fluo-4 dye were added to each well, and the plate was incubated at 37° C. for 30 minutes. After that, the plate was moved to room temperature and equilibrated for 10 minutes. The compounds were formulated at 10^6, 10^5, 10^4, 10^3, 10^2 and 10^1 nM. 1 μl of the compounds in each concentration was added to each well, and the plate was incubated at room temperature for 10 minutes. 50 μl of oxytocin polypeptide (3 nM) were automatically added by the machine, and the values were immediately detected at 494/516 nM by the flexstation 3 microplate reader. IC50 values of the compounds were calculated by Graphpad prism software using fluorescence signals corresponding to different concentrations.
The inhibition activity of the compounds of the present invention on human OTR was determined by the above test, and the obtained IC50 values are shown in Table 1.

[1] = Pharmacokinetics assay in rats after intragastrical administration; format: in vivo, SD rats; conditions: Sprague-Dawley, rat, plasma, po, 30 mg/kg, intragastric, male rats; for Vd/F: read-out: Apparent distribution volume Vz/F; for AUC: read-out: Area under curve AUC; for CL/F: read-out: Clearance CLz/F; for half-life: read-out: Half-life T1/2 (converted); for Cmax: read-out: Plasma concentration Cmax; for MRT: read-out: Residence time MRT
Protocol: Male SD rats were used as test animals. The drug concentration in plasma at different time points was determined by LC/MS/MS method after intragastrical administration of the compounds of Examples 2, 17, 34, 37, 38, 39 and 43 to rats. The pharmacokinetic behavior of the compounds of the present invention was studied and evaluated in rats.
Twenty-one healthy adult male Sprague-Dawley (SD) rats were purchased from Shanghai Jiesijie Laboratory Animal Co., LTD, with Certificate No.: SCXK (Shanghai) 2013-0006, and equally divided into 7 groups (3 rats per group).
A certain amount of the test compound was weighed, and added with 2.5% by volume of DMSO and 97.5% by volume of 10% solutol HS-15 to formulate a […] colorless, clear and transparent solution.
After an overnight fast, SD rats were administered intragastrically the test compounds at an administration dosage of 30.0 mg/kg and an administration volume of 10.0 mL/kg.
The rats were intragastrically administered the compounds of Examples 2, 17, 34, 37, 38, 39 and 43. 0.2 mL of blood was taken from the orbital sinus before administration and at 0.5, 1.0, 2.0, 4.0, 6.0, 8.0, 11.0 and 24.0 hours after administration. The samples were stored in heparinized tubes, and centrifuged for 10 minutes at 4° C. at 3500 rpm to separate the plasma. The plasma samples were stored at −20° C. The rats were fed 2 hours after administration.
The content of the test compounds in the plasma of rats after intragastrical administration of the test compounds at different concentrations was determined: 50 μL of rat plasma at each time after administration was taken, added with 50 μL of the internal standard solution of camptothecin (100 ng/mL) and 150 μL of acetonitrile, vortex-mixed for 5 minutes, and centrifuged for 10 minutes (4000 rpm). 3 μL of the supernatant was taken from the plasma samples for LC/MS/MS analysis.

human V1aR = human V1aR (Homo sapiens (Human), UniProt P37288); test: Inhibition activity on human V1aR (Fluo-4 calcium assay, HEK293/human V1aR stably transfected cells); format: cell-based; conditions: vasopressin 3 nM
Protocol: The inhibition effect of the compounds of the present invention on the activity of human V1 aR protein expressed in HEK293/human V1aR stably transfected cells was determined by the following experimental method:
The pcDNA3.1-V1aR plasmid was transferred into HEK293 cells with the Lipofectamine® 3000 transfection reagent; G418 was added on the next day to screen, and monoclonal cell lines were selected.
as §1, with “V1aR” for “OTR”, “vasopressin” for “oxytocin”
The inhibition activity of the compounds of the present invention on human V1aR was determined by the above test, and the obtained IC50 values are shown in Table 2.

Sequence of human V1aR (P37288 whole entry): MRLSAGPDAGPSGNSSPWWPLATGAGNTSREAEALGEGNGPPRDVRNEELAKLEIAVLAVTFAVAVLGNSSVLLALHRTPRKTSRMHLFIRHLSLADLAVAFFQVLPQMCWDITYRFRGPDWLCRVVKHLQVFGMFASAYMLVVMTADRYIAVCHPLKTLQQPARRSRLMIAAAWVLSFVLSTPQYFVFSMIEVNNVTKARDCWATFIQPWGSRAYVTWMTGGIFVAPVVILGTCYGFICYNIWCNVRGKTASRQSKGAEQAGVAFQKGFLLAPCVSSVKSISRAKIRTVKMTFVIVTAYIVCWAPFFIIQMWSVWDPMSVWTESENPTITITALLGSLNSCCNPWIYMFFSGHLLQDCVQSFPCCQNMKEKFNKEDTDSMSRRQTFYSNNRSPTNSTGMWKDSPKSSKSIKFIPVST

Row | IC50 (human OTR) [nM] | IC50 (human V1aR) [nM] | Structure (SMILES) | further results
1 | 15 | 7900 | COc1ccc(-n2c(N3CC(N4CCOc5cc(F)ccc54)C3)nnc2C(F)(F)F)cn1 [Example 43, 7-Fluoro-4-(1-(4-(6-methoxypyridin-3-yl)-5-(trifluoromethyl)-4H-1,2,4-triazol-3-yl)azetidin-3-yl)-3,4-dihydro-2H-benzo[b][1,4]oxazine] | Vd/F [1]: 31.1 ± 19.3 L/kg; AUC [1]: 5560 ± 2330 ng·h/mL; CL/F [1]: 3.81 ± 0.12 mL/min/kg; half-life [1]: 3.31 ± 0.23 h; Cmax [1]: 1580 ± 601 ng/mL
2 | 181 | 14100 | COc1ccc(-n2c(C(F)F)nnc2N2CC(N3CCOc4cc(F)ccc43)C2)cn1 [Example 35, 4-(1-(5-(Difluoromethyl)-4-(6-methoxypyridin-3-yl)-4H-1,2,4-triazol-3-yl)azetidin-3-yl)-7-fluoro-3,4-dihydro-2H-benzo[b][1,4]oxazine] | –
3 | 23 | – | COCc1nnc(N2CC(n3ccc4cc(F)ccc43)C2)n1-c1ccc(OC)nc1 [Example 25, 5-Fluoro-1-(1-(5-(methoxymethyl)-4-(6-methoxypyridin-3-yl)-4H-1,2,4-triazol-3-yl)azetidin-3-yl)-1H-indole] | –
4 | 231 | 2400 | COCc1nnc(N2CC(N3CCCc4cc(F)ccc43)C2)n1-c1ccc2c(c1)OCO2 [Example 28, 1-(1-(4-(Benzo[d][1,3]dioxolan-5-yl)-5-(methoxymethyl)-4H-1,2,4-triazol-3-yl)azetidin-3-yl)-6-fluoro-1,2,3,4-tetrahydroquinoline] | –
5 | 6 | 2000 | COc1ccc(-n2c(N3CC(N4CCCc5cc(F)ccc54)C3)nnc2C(F)(F)F)cn1 [Example 39, 6-Fluoro-1-(1-(4-(6-methoxypyridin-3-yl)-5-(trifluoromethyl)-4H-1,2,4-triazol-3-yl)azetidin-3-yl)-1,2,3,4-tetrahydroquinoline] | Vd/F [1]: 35 ± 3.01 L/kg; AUC [1]: 3830 ± 83.7 ng·h/mL; CL/F [1]: 131 ± 2.85 mL/min/kg; half-life [1]: 3.09 ± 0.199 h; Cmax [1]: 1200 ± 68.5 ng/mL; MRT [1]: 3.61 ± 0.022 h
6 | 41 | 2000 | COCc1nnc(N2CC(N3CCCc4c(F)cccc43)C2)n1-c1ccc(OC)nc1 [Example 19, 5-Fluoro-1-(1-(5-(methoxymethyl)-4-(6-methoxypyridin-3-yl)-4H-1,2,4-triazol-3-yl)azetidin-3-yl)-1,2,3,4-tetrahydroquinoline] | –
7 | 124 | 2100 | COC(=O)NCc1nnc(N2CC(N3CCCc4cc(F)ccc43)C2)n1-c1ccc(OC)nc1 [Example 36, Methyl ((5-(3-(6-fluoro-3,4-dihydroquinolin-1(2H)-yl)azetidin-1-yl)-4-(6-methoxypyridin-3-yl)-4H-1,2,4-triazol-3-yl)methyl)carbamate] | –
8 | – | 2300 | CCOCc1nnc(N2CC(n3cc(Cl)c4cc(F)ccc43)C2)n1-c1ccc(OC)nc1 [Example 4, 3-Chloro-1-(1-(5-(ethoxymethyl)-4-(6-methoxypyridin-3-yl)-4H-1,2,4-triazol-3-yl)azetidin-3-yl)-5-fluoro-1H-indole] | –
9 | – | 11900 | COCc1nnc(N2CC(n3cc(C#N)c4cc(F)ccc43)C2)n1-c1ccc(OC)nc1 [Example 13, 5-Fluoro-1-(1-(5-(methoxymethyl)-4-(6-methoxypyridin-3-yl)-4H-1,2,4-triazol-3-yl)azetidin-3-yl)-1H-indole-3-carbonitrile] | –
10 | – | 4700 | COc1ccc(-n2c(C)nnc2N2CC(n3cc(C)c4cc(F)ccc43)C2)cn1 [Example 6, 5-Fluoro-1-(1-(4-(6-methoxypyridin-3-yl)-5-methyl-4H-1,2,4-triazol-3-yl)azetidin-3-yl)-3-methyl-1H-indole] | –
11 | 188 | – | CCOCc1nnc(N2CC(n3cc(C)c4cc(F)ccc43)C2)n1-c1ccc(OC)nc1 [Example 5, 1-(1-(5-(Ethoxymethyl)-4-(6-methoxypyridin-3-yl)-4H-1,2,4-triazol-3-yl)azetidin-3-yl)-5-fluoro-3-methyl-1H-indole] | –
12 | 150 | 9000 | COc1ccc(-n2c(CO)nnc2N2CC(c3cccc4cc(F)ccc34)C2)cn1 [Example 41, (5-(3-(6-Fluoronaphthalen-1-yl)azetidin-1-yl)-4-(6-methoxypyridin-3-yl)-4H-1,2,4-triazol-3-yl)methanol] | –
13 | – | 6700 | COCc1nnc(N2CC(n3cc(C(F)(F)F)c4cc(F)ccc43)C2)n1-c1ccc(OC)nc1 [Example 7, 5-Fluoro-1-(1-(5-(methoxymethyl)-4-(6-methoxypyridin-3-yl)-4H-1,2,4-triazol-3-yl)azetidin-3-yl)-3-(trifluoromethyl)-1H-indole] | –
14 | 104 | 3100 | COc1ccc(-n2c(C)nnc2N2CC(N3CCCc4c(F)cccc43)C2)cn1 [Example 20, 5-Fluoro-1-(1-(4-(6-methoxypyridin-3-yl)-5-methyl-4H-1,2,4-triazol-3-yl)azetidin-3-yl)-1,2,3,4-tetrahydroquinoline] | –
15 | 23 | 4500 | COCc1nnc(N2CC(N3CCC(C)(C)c4cc(F)ccc43)C2)n1-c1ccc(OC)nc1 [Example 42, 6-Fluoro-1-(1-(5-(methoxymethyl)-4-(6-methoxypyridin-3-yl)-4H-1,2,4-triazol-3-yl)azetidin-3-yl)-4,4-dimethyl-1,2,3,4-tetrahydroquinoline] | –
16 | 8 | – | COc1ccc(-n2c(COC(F)F)nnc2N2CC(n3cc(C)c4cc(F)ccc43)C2)cn1 [Example 34, 1-(1-(5-((Difluoromethoxy)methyl)-4-(6-methoxypyridin-3-yl)-4H-1,2,4-triazol-3-yl)azetidin-3-yl)-5-fluoro-3-methyl-1H-indole] | Vd/F [1]: 17.8 ± 3.33 L/kg; AUC [1]: 5330 ± 981 ng·h/mL; CL/F [1]: 95.8 ± 16 mL/min/kg; half-life [1]: 2.16 ± 0.345 h; Cmax [1]: 1070 ± 252 ng/mL; MRT [1]: 3.84 ± 1.08 h
17 | – | 7000 | COCc1nnc(N2CC(n3cc(Cl)c4cc(F)ccc43)C2)n1-c1ccc2c(c1)OCO2 [Example 3, 1-(1-(4-(Benzo[d][1,3]dioxolan-5-yl)-5-(methoxymethyl)-4H-1,2,4-triazol-3-yl)azetidin-3-yl)-3-chloro-5-fluoro-1H-indole] | –
18 | 177 | 7500 | COCc1nnc(N2CC(N3CCOc4c(F)cccc43)C2)n1-c1ccc(OC)nc1 [Example 22, 8-Fluoro-4-(1-(5-(methoxymethyl)-4-(6-methoxypyridin-3-yl)-4H-1,2,4-triazol-3-yl)azetidin-3-yl)-3,4-dihydro-2H-benzo[b][1,4]oxazine] | –

Reference: patent US10889569B2, “Condensed ring group azacyclobutyl triazole derivative, preparation method therefor and use thereof in medicine” (Jiangsu Hengrui Medicine Co., Ltd., priority 2016, dated 2021)
